We go through five compounds from patent publication EP0284935A1, “5-Substituted quinolone- and naphthyridone carboxylic acid derivatives” (BAYER AG, priority 1987, dated 1988).

≈ marks a conversion by molar mass, not a printed value. Where a name gives a salt, the structure may show the parent alone.

Common to all, as to assay: Agar dilution test, minimum inhibitory concentration
Common to all, as to type: cell-based
For orientation: Agar dilution tests growth on a series of plates holding different concentrations.

One experiment deals with E.coli 455/7. The following applies: Escherichia coli; test strain E.coli 455/7; Isosensitest-Agar (Oxoid), inoculum ca. 10^4 germs per inoculation point; read-out: Minimale Hemmkonzentrationen.
The subject of another experiment is E.coli A261. The following applies: Escherichia coli; test strain E.coli A261; Isosensitest-Agar (Oxoid), inoculum ca. 10^4 germs per inoculation point; read-out: Minimale Hemmkonzentrationen.
Another experiment relates to Proteus mir. 8223. The following applies: test strain Proteus mir. 8223; Isosensitest-Agar (Oxoid), inoculum ca. 10^4 germs per inoculation point; read-out: Minimale Hemmkonzentrationen.
Another experiment concerns Proteus mir. 8175. The following applies: test strain Proteus mir. 8175; Isosensitest-Agar (Oxoid), inoculum ca. 10^4 germs per inoculation point; read-out: Minimale Hemmkonzentrationen.
The test system of another experiment is Proteus vulg. 1017. The following applies: test strain Proteus vulg. 1017; Isosensitest-Agar (Oxoid), inoculum ca. 10^4 germs per inoculation point; read-out: Minimale Hemmkonzentrationen.
The subject of another experiment is Morg. morg. 11006. The following applies: test strain Morg. morg. 11006; Isosensitest-Agar (Oxoid), inoculum ca. 10^4 germs per inoculation point; read-out: Minimale Hemmkonzentrationen.
The subject of a further experiment is Providencia 12052. The following applies: test strain Providencia 12052; Isosensitest-Agar (Oxoid), inoculum ca. 10^4 germs per inoculation point; read-out: Minimale Hemmkonzentrationen.
The next experiment deals with Serratia 16040. The following applies: test strain Serratia 16040; Isosensitest-Agar (Oxoid), inoculum ca. 10^4 germs per inoculation point; read-out: Minimale Hemmkonzentrationen.
A further experiment concerns Staph. 1756. The following applies: test strain Staph. 1756; Isosensitest-Agar (Oxoid), inoculum ca. 10^4 germs per inoculation point; read-out: Minimale Hemmkonzentrationen.
In the next experiment the test system is Staph. 133. The following applies: test strain Staph. 133; Isosensitest-Agar (Oxoid), inoculum ca. 10^4 germs per inoculation point; read-out: Minimale Hemmkonzentrationen.
In another experiment the test system is Enteroc. 27101. The following applies: test strain Enteroc. 27101; Isosensitest-Agar (Oxoid), inoculum ca. 10^4 germs per inoculation point; read-out: Minimale Hemmkonzentrationen.
Another experiment has as its system Enteroc. 9790. The following applies: test strain Enteroc. 9790; Isosensitest-Agar (Oxoid), inoculum ca. 10^4 germs per inoculation point; read-out: Minimale Hemmkonzentrationen.
In a further experiment the test system is Pseudomonas Walter. The following applies: test strain Pseudomonas Walter; Isosensitest-Agar (Oxoid), inoculum ca. 10^4 germs per inoculation point; read-out: Minimale Hemmkonzentrationen.
A further experiment has as its system Pseudomonas Ellsworth. The following applies: test strain Pseudomonas Ellsworth; Isosensitest-Agar (Oxoid), inoculum ca. 10^4 germs per inoculation point; read-out: Minimale Hemmkonzentrationen.
The test system of a further experiment is Klebsiella 63. The following applies: test strain Klebsiella 63; Isosensitest-Agar (Oxoid), inoculum ca. 10^4 germs per inoculation point; read-out: Minimale Hemmkonzentrationen.
Another experiment concerns Klebsiella 8085. The following applies: test strain Klebsiella 8085; Isosensitest-Agar (Oxoid), inoculum ca. 10^4 germs per inoculation point; read-out: Minimale Hemmkonzentrationen.
The next experiment relates to Providencia 12012. The following applies: test strain Providencia 12012; Isosensitest-Agar (Oxoid), inoculum ca. 10^4 germs per inoculation point; read-out: Minimale Hemmkonzentrationen.
For the next experiment, the system named is Morg. morg. 932. The following applies: test strain Morg. morg. 932; Isosensitest-Agar (Oxoid), inoculum ca. 10^4 germs per inoculation point; read-out: Minimale Hemmkonzentrationen.
In the next experiment the test system is Staph. FK 422. The following applies: test strain Staph. FK 422; Isosensitest-Agar (Oxoid), inoculum ca. 10^4 germs per inoculation point; read-out: Minimale Hemmkonzentrationen.

Take `Nc1c(F)c(N2CCNC(c3ccc(F)cc3)C2)c(F)c2c1c(=O)c(C(=O)O)cn2C1CC1` (stereo not drawn) [Beispiel 24, 5-Amino-1-cyclopropyl-6,8-difluor-7-[3-(4-fluorphenyl)-1-piperazinyl]-1,4-dihydro-4-oxo-3-chinolincarbonsäure]: the MIC with E.coli 455/7 is 4 µg/mL (≈ 8.73 µM); in the experiment with E.coli A261, 1 µg/mL (≈ 2.18 µM); in the experiment on Proteus mir. 8223 it was 2 µg/mL (≈ 4.36 µM); in the experiment with Proteus mir. 8175, 0.25 µg/mL (≈ 0.545 µM); in the experiment with Proteus vulg. 1017 it was 0.06 µg/mL (≈ 0.131 µM); in the experiment with Morg. morg. 11006, 0.25 µg/mL (≈ 0.545 µM). Moreover, the MIC amounted to 4 µg/mL (≈ 8.73 µM) with Providencia 12052; 8 µg/mL (≈ 17.5 µM) in the experiment with Serratia 16040; 0.06 µg/mL (≈ 0.131 µM) in the experiment on Staph. 1756; 0.06 µg/mL (≈ 0.131 µM) with Staph. 133; 0.25 µg/mL (≈ 0.545 µM) in the experiment with Enteroc. 27101; 0.25 µg/mL (≈ 0.545 µM) in the experiment on Enteroc. 9790. In addition, the MIC was found to be 2 µg/mL (≈ 4.36 µM) in the experiment with Pseudomonas Walter and 0.25 µg/mL (≈ 0.545 µM) in the experiment with Pseudomonas Ellsworth.

`Nc1c(F)c(N2CCN3CCC2C3)c(F)c2c1c(=O)c(C(=O)O)cn2C1CC1` (stereo not drawn) [Beispiel 25, 5-Amino-1-cyclopropyl-7-(1,4-diazabicyclo[3.2.1]oct-4-yl)-6,8-difluor-1,4-dihydro-4-oxo-3-chinolincarbonsäure]: the MIC is 1 µg/mL (≈ 2.56 µM) with E.coli 455/7; 0.03 µg/mL (≈ 0.0768 µM) with Klebsiella 63; 0.06 µg/mL (≈ 0.154 µM) in the experiment on Klebsiella 8085; 1 µg/mL (≈ 2.56 µM) in the experiment on Proteus mir. 8223; 0.03 µg/mL (≈ 0.0768 µM) in the experiment on Morg. morg. 11006; 0.06 µg/mL (≈ 0.154 µM) in the experiment with Providencia 12012. For the same compound, the MIC in the experiment with Providencia 12052 is 4 µg/mL (≈ 10.2 µM); in the experiment with Serratia 16040 it was 4 µg/mL (≈ 10.2 µM); with Pseudomonas Walter, 0.5 µg/mL (≈ 1.28 µM); with Pseudomonas Ellsworth it was 0.03 µg/mL (≈ 0.0768 µM).

Regarding `Nc1c(F)c(N2CCCC2)c(F)c2c1c(=O)c(C(=O)O)cn2C1CC1` [Beispiel 27, 5-Amino-1-cyclopropyl-6,8-difluor-1,4-dihydro-4-oxo-7-(1-pyrrolidinyl)-3-chinolincarbonsäure], the MIC in the experiment with E.coli 455/7 was 16 µg/mL (≈ 45.8 µM); with E.coli A261, 2 µg/mL (≈ 5.73 µM); with Proteus mir. 8223 it was 0.25 µg/mL (≈ 0.716 µM); in the experiment with Proteus mir. 8175, 0.25 µg/mL (≈ 0.716 µM); in the experiment with Proteus vulg. 1017 it was 0.06 µg/mL (≈ 0.172 µM); in the experiment on Morg. morg. 932, 0.06 µg/mL (≈ 0.172 µM). For the same compound, the MIC with Providencia 12012 stood at 0.06 µg/mL (≈ 0.172 µM); in the experiment on Providencia 12052, 8 µg/mL (≈ 22.9 µM); in the experiment on Serratia 16040, 16 µg/mL (≈ 45.8 µM); with Enteroc. 27101, 0.03 µg/mL (≈ 0.0859 µM); in the experiment with Pseudomonas Walter, 1 µg/mL (≈ 2.86 µM).

Regarding `Nc1c(F)c(N2CCC(O)C2)c(F)c2c1c(=O)c(C(=O)O)cn2C1CC1` (stereo not drawn) [Beispiel 28, 5-Amino-1-cyclopropyl-6,8-difluor-1,4-dihydro-7-(3-hydroxy-1-pyrrolidinyl)-4-oxo-3-chinolincarbonsäure], the MIC was 2 µg/mL (≈ 5.47 µM) in the experiment on E.coli 455/7; 0.25 µg/mL (≈ 0.684 µM) in the experiment on E.coli A261; 0.06 µg/mL (≈ 0.164 µM) with Proteus mir. 8223; 1 µg/mL (≈ 2.74 µM) with Providencia 12052; 1 µg/mL (≈ 2.74 µM) with Serratia 16040; 0.03 µg/mL (≈ 0.0821 µM) in the experiment on Enteroc. 27101. Moreover, the MIC in the experiment with Enteroc. 9790 turned out to be 0.03 µg/mL (≈ 0.0821 µM); in the experiment on Pseudomonas Walter, 0.25 µg/mL (≈ 0.684 µM); with Pseudomonas Ellsworth it was 0.03 µg/mL (≈ 0.0821 µM).

As for `CCNCC1CCN(c2c(F)c(N)c3c(=O)c(C(=O)O)cn(C4CC4)c3c2F)C1` (stereo not drawn) [Beispiel 32, 5-Amino-1-cyclopropyl-7-(3-ethylaminomethyl-1-pyrrolidinyl)-6.8-difluor-1,4-dihydro-4-oxo-3-chinolincarbonsäure-hydrochlorid-hydrat], the MIC in the experiment on E.coli 455/7 worked out at 1 µg/mL; in the experiment on E.coli A261 it was 0.06 µg/mL; with Klebsiella 8085, 0.03 µg/mL; in the experiment with Proteus mir. 8223 it was 0.5 µg/mL; in the experiment on Proteus mir. 8175, 0.06 µg/mL; in the experiment on Morg. morg. 11006 it was 0.03 µg/mL. For the same compound, the MIC in the experiment with Providencia 12012 was 0.03 µg/mL; with Providencia 12052, 1 µg/mL; in the experiment with Serratia 16040 it was 4 µg/mL; in the experiment on Staph. FK 422, 0.03 µg/mL; in the experiment on Staph. 1756, 0.03 µg/mL; with Staph. 133, 0.03 µg/mL. Besides, the MIC turned out to be 0.03 µg/mL in the experiment with Enteroc. 27101, 0.03 µg/mL with Enteroc. 9790, 1 µg/mL with Pseudomonas Walter and 0.03 µg/mL in the experiment with Pseudomonas Ellsworth.
